This is an account of results in PubChem BioAssay (NCI).

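Dose response: 5 concentrations. Exposure: 48 h. Format: 96-well plates. Endpoint: linear interpolation; highest concentration if not reached. The concentration for 50% growth inhibition is given as GI50. TGI denotes the concentration required for complete inhibition of growth.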 A value given as a limit tells only on which side of the number the result lay.

Some test systems named below: IGROV1 ovarian; DU-145 prostate; MDA-MB-435; SR leukemia; HL-60(TB) leukemia; HCT-15 colon; OVCAR-8 ovarian; 786-0 renal; SF-295 CNS; TK-10 renal.
Common to all, as to assay: NCI-60 cell line screen, 48 h

On to `CCOc1ccc2nc(SCc3nc4n(n3)S(=O)(=O)c3ccccc3N4C)sc2c1`, for which the GI50 was above 100 µM in the assay with IGROV1 ovarian; above 100 µM in the assay on DU-145 prostate; above 100 µM in the assay on MDA-MB-435; 51.5 µM with SR leukemia; 82.7 µM in the assay with HL-60(TB) leukemia; above 100 µM in the assay on HCT-15 colon. The GI50 was 73 µM with OVCAR-8 ovarian, above 100 µM with 786-0 renal and above 100 µM with SF-295 CNS. Also, the TGI in the assay with IGROV1 ovarian, in the assay on DU-145 prostate, in the assay with MDA-MB-435, with SR leukemia, in the assay with HL-60(TB) leukemia and with HCT-15 colon was above 100 µM each time. Moreover, the TGI in the assay with OVCAR-8 ovarian, in the assay with 786-0 renal and in the assay with SF-295 CNS was above 100 µM each time.

On to `Cc1cc(=O)oc2cc(OC(=O)N(C)C)c(Cl)cc12`, for which the TGI with IGROV1 ovarian, in the assay on DU-145 prostate, with MDA-MB-435, with SR leukemia, with TK-10 renal and with HL-60(TB) leukemia was above 100 µM in each case. Further, the TGI in the assay on HCT-15 colon, in the assay with OVCAR-8 ovarian and with 786-0 renal was above 100 µM in each case.

Consider `C=C1C(=O)O[C@@H]2C[C@@H](C)[C@@H]3C=CC(=O)[C@@]3(C)[C@@H](OC(=O)CC(=O)O[C@H]3[C@@H]4C(=C)C(=O)O[C@@H]4C[C@@H](C)[C@@H]4C=CC(=O)[C@]43C)[C@H]12`, for which the TGI in the assay on IGROV1 ovarian is 0.595 µM; in the assay with DU-145 prostate, 12.9 µM; in the assay with MDA-MB-435, 0.144 µM; with SR leukemia it was 0.0548 µM; in the assay with TK-10 renal, 0.47 µM; in the assay on HCT-15 colon, 0.0773 µM. The TGI turned out to be 0.0591 µM in the assay with OVCAR-8 ovarian, 0.0355 µM in the assay with 786-0 renal and 0.302 µM in the assay with SF-295 CNS.

In the case of `COc1ccc(-c2cc(=O)c3ccc(C)nc3[nH]2)cc1`, the TGI in the assay with IGROV1 ovarian, in the assay with DU-145 prostate, with MDA-MB-435, in the assay on TK-10 renal, in the assay with HL-60(TB) leukemia and in the assay with HCT-15 colon was above 100 µM each time. Besides, the TGI in the assay on OVCAR-8 ovarian, in the assay on 786-0 renal and with SF-295 CNS was above 100 µM each time. Also, the GI50 is 42.7 µM with MDA-MB-435, above 100 µM in the assay on HL-60(TB) leukemia, above 100 µM with 786-0 renal and 88.3 µM with SF-295 CNS.

`Cc1sc2nc(-c3ccncc3)c(/C=N/N=C(N)N)n2c1C`: the GI50 in the assay on DU-145 prostate was 50.8 µM; in the assay with MDA-MB-435 it was 26.2 µM; with TK-10 renal, above 100 µM; in the assay on HL-60(TB) leukemia it was 21.7 µM; in the assay on HCT-15 colon, above 100 µM; in the assay on 786-0 renal, 32.2 µM. Moreover, the GI50 in the assay on SF-295 CNS is 24.9 µM. Also, the TGI was above 100 µM in the assay on DU-145 prostate; above 100 µM in the assay on MDA-MB-435; above 100 µM in the assay on TK-10 renal; above 100 µM in the assay with HL-60(TB) leukemia; above 100 µM with HCT-15 colon; 92.1 µM in the assay on 786-0 renal. In the assay on SF-295 CNS, this compound showed a TGI of 72.7 µM.

On to `C=C1C(=O)O[C@H]2[C@H]1CC/C(COC(=O)CSCCSCC(=O)OC/C1=C/CC[C@@]3(C)O[C@H]3[C@H]3OC(=O)C(=C)[C@@H]3CC1)=C\CC[C@@]1(C)O[C@@H]21`, for which the GI50 was 2.35 µM in the assay on IGROV1 ovarian; 1.77 µM in the assay with DU-145 prostate; 2.18 µM in the assay on MDA-MB-435; 1.84 µM in the assay with TK-10 renal; 1.55 µM in the assay on HCT-15 colon; 1.97 µM with OVCAR-8 ovarian. Also, the GI50 with 786-0 renal is 1.64 µM; in the assay with SF-295 CNS it was 2.29 µM. Moreover, the TGI in the assay on IGROV1 ovarian worked out at 5.6 µM; in the assay on DU-145 prostate, 3.37 µM; in the assay on MDA-MB-435, 5.22 µM; in the assay on TK-10 renal it was 3.29 µM; with HCT-15 colon, 3.01 µM; with OVCAR-8 ovarian, 4.6 µM. The TGI in the assay on 786-0 renal was 3.27 µM; in the assay on SF-295 CNS, 5.76 µM.

On to `Cc1cc(S(=O)(=O)Nc2nc3cscc3c(=O)n2Cc2ccccc2)c(S)cc1Cl`, for which the GI50 in the assay on IGROV1 ovarian was 64.9 µM; in the assay with DU-145 prostate, 41 µM; in the assay on MDA-MB-435, 44.4 µM; in the assay with TK-10 renal it was 35 µM; in the assay with HL-60(TB) leukemia, 44.1 µM; with HCT-15 colon, 56.8 µM. The GI50 in the assay with OVCAR-8 ovarian was 55.7 µM; in the assay with 786-0 renal, 24.3 µM; with SF-295 CNS, 23.7 µM. For the same compound, the TGI in the assay with IGROV1 ovarian, in the assay on DU-145 prostate, in the assay on MDA-MB-435, with TK-10 renal, in the assay on HL-60(TB) leukemia and in the assay with HCT-15 colon was above 100 µM each time. In addition, the TGI with OVCAR-8 ovarian, in the assay with 786-0 renal and in the assay on SF-295 CNS was above 100 µM throughout.

For `Cc1nn(-c2nc3ccccc3[nH]2)c(N)c1-c1ccc(Cl)cc1`, the GI50 in the assay with IGROV1 ovarian is 7.75 µM; in the assay with DU-145 prostate, 6.86 µM; with MDA-MB-435, 4.6 µM; with SR leukemia, 3.63 µM; in the assay with TK-10 renal, 4.51 µM; in the assay with HL-60(TB) leukemia, 4.31 µM. In addition, the GI50 in the assay with HCT-15 colon was 3.88 µM; in the assay on OVCAR-8 ovarian it was 4.36 µM; in the assay with 786-0 renal, 8.31 µM. Moreover, the TGI in the assay with IGROV1 ovarian was above 100 µM; with DU-145 prostate, above 100 µM; with MDA-MB-435, above 100 µM; in the assay on SR leukemia, above 100 µM; with TK-10 renal it was above 100 µM; in the assay with HL-60(TB) leukemia, 25.1 µM. The TGI in the assay with HCT-15 colon, in the assay with OVCAR-8 ovarian and with 786-0 renal was above 100 µM throughout.

For the compound `COc1ccc2c(c1)C(=O)c1c-2n(CCCN=[N+]=[N-])c(=O)c2cc(OC)c(OC)cc12`, the GI50 was 16 µM in the assay on IGROV1 ovarian; 26.6 µM with DU-145 prostate; above 100 µM with MDA-MB-435; 19.5 µM in the assay on TK-10 renal; 13 µM in the assay with HL-60(TB) leukemia; above 100 µM in the assay with HCT-15 colon. Further, the results for the GI50 in the assay with OVCAR-8 ovarian, with 786-0 renal and with SF-295 CNS were above 100 µM, 26.7 µM and 18 µM, respectively. Also, the TGI is above 100 µM with IGROV1 ovarian; above 100 µM in the assay on DU-145 prostate; above 100 µM in the assay on MDA-MB-435; 72.1 µM in the assay with TK-10 renal; 25.7 µM with HL-60(TB) leukemia; above 100 µM in the assay with HCT-15 colon. In addition, the TGI in the assay with OVCAR-8 ovarian is above 100 µM; in the assay on 786-0 renal it was 89.5 µM; in the assay on SF-295 CNS, above 100 µM.
